From ChEMBL document CHEMBL1806455, “Synthesis, activity and pharmacokinetics of novel antibacterial 15-membered ring macrolones” (Eur J Med Chem, 2011)
Values after ≈ are worked out from the molar mass of the structure shown.

How the values were obtained:
Type in all cases: functional
Streptococcus pyogenes [1] = assay: Antibacterial activity against macrolide, lincosamide, streptogramin-resistant Streptococcus pyogenes 166 GR-Micro by broth microdilution method
Staphylococcus aureus [2] = assay: Antibacterial activity against efflux-mediated macrolide-resistant Staphylococcus aureus PK1 by broth microdilution method
Staphylococcus aureus [3] = assay: Antibacterial activity against constitutive macrolide, lincosamide, streptogramin-resistant Staphylococcus aureus PK2 by broth microdilution method
Staphylococcus aureus [4] = assay: Antibacterial activity against erythromycin-sensitive Staphylococcus aureus ATCC 13709 by broth microdilution method
Streptococcus pyogenes [5] = assay: Antibacterial activity against inducible macrolide-lincosamide-streptogramin B resistant Streptococcus pyogenes Finland 11 by broth microdilution method
Streptococcus pneumoniae [6] = assay: Antibacterial activity against efflux-mediated macrolide-resistant Streptococcus pneumoniae Ci137 by broth microdilution method
Streptococcus pyogenes [7] = assay: Antibacterial activity against efflux-mediated macrolide-resistance Streptococcus pyogenes 2 Finland by broth microdilution method
Haemophilus influenzae = assay: Antibacterial activity against Haemophilus influenzae ATCC 49247 by broth microdilution method
Streptococcus pyogenes [8] = assay: Antibacterial activity against erythromycin-sensitive Streptococcus pyogenes 3565 by broth microdilution method
Streptococcus pneumoniae [9] = assay: Antibacterial activity against erythromycin-sensitive Streptococcus pneumoniae SP030 by broth microdilution method
Streptococcus pneumoniae [10] = assay: Antibacterial activity against constitutive macrolide, lincosamide, streptogramin-resistant Streptococcus pneumoniae 58 spain by broth microdilution method
Streptococcus pneumoniae [11] = assay: Antibacterial activity against inducible macrolide-resistant, constitutive lincosamide, streptogramin-resistant Streptococcus pneumoniae 134 GR M by broth microdilution method
Staphylococcus aureus [12] = assay: Antibacterial activity against inducible macrolide-lincosamide-streptogramin B resistant Staphylococcus aureus 90256 by broth microdilution method
Moraxella catarrhalis = assay: Antibacterial activity against Moraxella catarrhalis ATCC 23246 by broth microdilution method

| Compound | MIC (Streptococcus pyogenes [1]) | MIC (Staphylococcus aureus [2]) | MIC (Staphylococcus aureus [3]) | MIC (Staphylococcus aureus [4]) | MIC (Streptococcus pyogenes [5]) | MIC (Streptococcus pneumoniae [6]) | MIC (Streptococcus pyogenes [7]) | MIC (Haemophilus influenzae) | MIC (Streptococcus pyogenes [8]) | MIC (Streptococcus pneumoniae [9]) | MIC (Streptococcus pneumoniae [10]) | MIC (Streptococcus pneumoniae [11]) | MIC (Staphylococcus aureus [12]) | MIC (Moraxella catarrhalis) |
| --- | --- | --- | --- | --- | --- | --- | --- | --- | --- | --- | --- | --- | --- | --- |
| CC[C@H]1OC(=O)[C@H](C)[C@@H](O[C@H]2C[C@@](C)(OC)[C@@H](OC(=O)CCOCCNc3cc4c(=O)c(C(=O)OC(C)C)cn(C5CC5)c4cc3Cl)[C@H](C)O2)[C@H](C)[C@@H](O[C@@H]2O[C@H](C)C[C@H](N(C)C)[C@H]2O)[C@](C)(O)C[C@@H](C)CN(C)[C@H](C)[C@@H](O)[C@]1(C)O | ≤ 0.125 µg/mL | 2 µg/mL (≈ 1.71 µM) | > 64 µg/mL | 0.5 µg/mL (≈ 0.428 µM) | ≤ 0.125 µg/mL | ≤ 0.125 µg/mL | ≤ 0.125 µg/mL | 2 µg/mL (≈ 1.71 µM) | ≤ 0.125 µg/mL | ≤ 0.125 µg/mL | ≤ 0.125 µg/mL | ≤ 0.125 µg/mL | 2 µg/mL (≈ 1.71 µM) |  |
| CC[C@H]1OC(=O)[C@H](C)[C@@H](O[C@H]2C[C@@](C)(OC)[C@@H](OC(=O)CCOCCNc3cc4c(=O)c(C(=O)OCCN5CCCC5)cn(C5CC5)c4cc3Cl)[C@H](C)O2)[C@H](C)[C@@H](O[C@@H]2O[C@H](C)C[C@H](N(C)C)[C@H]2O)[C@](C)(O)C[C@@H](C)CN(C)[C@H](C)[C@@H](O)[C@]1(C)O | ≤ 0.125 µg/mL | ≤ 0.125 µg/mL | > 64 µg/mL | 0.25 µg/mL (≈ 0.204 µM) | ≤ 0.125 µg/mL | ≤ 0.125 µg/mL | ≤ 0.125 µg/mL | 4 µg/mL (≈ 3.27 µM) | ≤ 0.125 µg/mL | ≤ 0.125 µg/mL | ≤ 0.125 µg/mL | ≤ 0.125 µg/mL | 1 µg/mL (≈ 0.818 µM) | ≤ 0.125 µg/mL |
| CCCOC(=O)c1cn(C2CC2)c2ccc(NCCOCCC(=O)O[C@H]3[C@H](C)O[C@@H](O[C@H]4[C@H](C)[C@@H](O[C@@H]5O[C@H](C)C[C@H](N(C)C)[C@H]5O)[C@](C)(O)C[C@@H](C)CN(C)[C@H](C)[C@@H](O)[C@](C)(O)[C@@H](CC)OC(=O)[C@@H]4C)C[C@@]3(C)OC)cc2c1=O | ≤ 0.125 µg/mL | 2 µg/mL (≈ 1.76 µM) | > 64 µg/mL | 0.5 µg/mL (≈ 0.441 µM) | ≤ 0.125 µg/mL | ≤ 0.125 µg/mL | ≤ 0.125 µg/mL | 2 µg/mL (≈ 1.76 µM) | ≤ 0.125 µg/mL | ≤ 0.125 µg/mL | ≤ 0.125 µg/mL | ≤ 0.125 µg/mL | 4 µg/mL (≈ 3.53 µM) |  |
| CC[C@H]1OC(=O)[C@H](C)[C@@H](O[C@H]2C[C@@](C)(OC)[C@@H](OC(=O)CCOCCNc3ccc4c(c3)c(=O)c(C(=O)OC(C)C)cn4C3CC3)[C@H](C)O2)[C@H](C)[C@@H](O[C@@H]2O[C@H](C)C[C@H](N(C)C)[C@H]2O)[C@](C)(O)C[C@@H](C)CN(C)[C@H](C)[C@@H](O)[C@]1(C)O | ≤ 0.125 µg/mL | 8 µg/mL (≈ 7.06 µM) | > 64 µg/mL | 0.5 µg/mL (≈ 0.441 µM) | ≤ 0.125 µg/mL | ≤ 0.125 µg/mL | ≤ 0.125 µg/mL | 4 µg/mL (≈ 3.53 µM) | ≤ 0.125 µg/mL | ≤ 0.125 µg/mL | ≤ 0.125 µg/mL | ≤ 0.125 µg/mL | 16 µg/mL (≈ 14.1 µM) | 4 µg/mL (≈ 3.53 µM) |
| CCC(=O)CNC(=O)COC(=O)c1cn(C2CC2)c2ccc(NCCOCCC(=O)O[C@H]3[C@H](C)O[C@@H](O[C@H]4[C@H](C)[C@@H](O[C@@H]5O[C@H](C)C[C@H](N(C)C)[C@H]5O)[C@](C)(O)C[C@@H](C)CN(C)[C@H](C)[C@@H](O)[C@](C)(O)[C@@H](CC)OC(=O)[C@@H]4C)C[C@@]3(C)OC)cc2c1=O | ≤ 0.125 µg/mL | 8 µg/mL (≈ 6.57 µM) | > 64 µg/mL | 1 µg/mL (≈ 0.821 µM) | ≤ 0.125 µg/mL | ≤ 0.125 µg/mL | ≤ 0.125 µg/mL | 4 µg/mL (≈ 3.28 µM) | ≤ 0.125 µg/mL | ≤ 0.125 µg/mL | ≤ 0.125 µg/mL | ≤ 0.125 µg/mL | 16 µg/mL (≈ 13.1 µM) |  |
| CC[C@H]1OC(=O)[C@H](C)[C@@H](O[C@H]2C[C@@](C)(OC)[C@@H](OC(=O)CCOCCNc3ccc4c(c3)c(=O)c(C(=O)OCCN3CCCCC3)cn4C3CC3)[C@H](C)O2)[C@H](C)[C@@H](O[C@@H]2O[C@H](C)C[C@H](N(C)C)[C@H]2O)[C@](C)(O)C[C@@H](C)CN(C)[C@H](C)[C@@H](O)[C@]1(C)O | ≤ 0.125 µg/mL | 1 µg/mL (≈ 0.832 µM) | > 64 µg/mL | 0.25 µg/mL (≈ 0.208 µM) | ≤ 0.125 µg/mL | ≤ 0.125 µg/mL | ≤ 0.125 µg/mL | 8 µg/mL (≈ 6.65 µM) | ≤ 0.125 µg/mL | ≤ 0.125 µg/mL | ≤ 0.125 µg/mL | ≤ 0.125 µg/mL | 4 µg/mL (≈ 3.33 µM) | 1 µg/mL (≈ 0.832 µM) |
| CC[C@H]1OC(=O)[C@H](C)[C@@H](O[C@H]2C[C@@](C)(OC)[C@@H](OC(=O)CCOCCOc3cc4c(=O)c(C(=O)OC(C)C)cn(C5CC5)c4cc3Cl)[C@H](C)O2)[C@H](C)[C@@H](O[C@@H]2O[C@H](C)C[C@H](N(C)C)[C@H]2O)[C@](C)(O)C[C@@H](C)CN(C)[C@H](C)[C@@H](O)[C@]1(C)O | 0.5 µg/mL (≈ 0.428 µM) | 4 µg/mL (≈ 3.42 µM) | > 64 µg/mL | 1 µg/mL (≈ 0.856 µM) | ≤ 0.125 µg/mL | ≤ 0.125 µg/mL | ≤ 0.125 µg/mL | 2 µg/mL (≈ 1.71 µM) | ≤ 0.125 µg/mL | ≤ 0.125 µg/mL | 0.25 µg/mL (≈ 0.214 µM) | 0.5 µg/mL (≈ 0.428 µM) | 4 µg/mL (≈ 3.42 µM) | 0.5 µg/mL (≈ 0.428 µM) |
| CC[C@H]1OC(=O)[C@H](C)[C@@H](O[C@H]2C[C@@](C)(OC)[C@@H](OC(=O)CCOCCOc3cc4c(=O)c(C(=O)OCOC(=O)C(C)(C)C)cn(C5CC5)c4cc3Cl)[C@H](C)O2)[C@H](C)[C@@H](O[C@@H]2O[C@H](C)C[C@H](N(C)C)[C@H]2O)[C@](C)(O)C[C@@H](C)CN(C)[C@H](C)[C@@H](O)[C@]1(C)O | ≤ 0.125 µg/mL | 2 µg/mL (≈ 1.61 µM) | > 64 µg/mL | 1 µg/mL (≈ 0.806 µM) | ≤ 0.125 µg/mL | ≤ 0.125 µg/mL | ≤ 0.125 µg/mL | 4 µg/mL (≈ 3.22 µM) | ≤ 0.125 µg/mL | ≤ 0.125 µg/mL | ≤ 0.125 µg/mL | 0.25 µg/mL (≈ 0.201 µM) | 4 µg/mL (≈ 3.22 µM) | 4 µg/mL (≈ 3.22 µM) |
| CC[C@H]1OC(=O)[C@H](C)[C@@H](O[C@H]2C[C@@](C)(OC)[C@@H](OC(=O)CCOCCOc3ccc4c(c3)c(=O)c(C(=O)OC(C)C)cn4C3CC3)[C@H](C)O2)[C@H](C)[C@@H](O[C@@H]2O[C@H](C)C[C@H](N(C)C)[C@H]2O)[C@](C)(O)C[C@@H](C)CN(C)[C@H](C)[C@@H](O)[C@]1(C)O | ≤ 0.125 µg/mL | 16 µg/mL (≈ 14.1 µM) | > 64 µg/mL | 1 µg/mL (≈ 0.882 µM) | ≤ 0.125 µg/mL | ≤ 0.125 µg/mL | ≤ 0.125 µg/mL | 4 µg/mL (≈ 3.53 µM) | ≤ 0.125 µg/mL | ≤ 0.125 µg/mL | ≤ 0.125 µg/mL | ≤ 0.125 µg/mL | 32 µg/mL (≈ 28.2 µM) | 2 µg/mL (≈ 1.76 µM) |
| CC[C@H]1OC(=O)[C@H](C)[C@@H](O[C@H]2C[C@@](C)(OC)[C@@H](OC(=O)CCOCCOc3ccc4c(c3)c(=O)c(C(=O)OCC(C)=O)cn4C3CC3)[C@H](C)O2)[C@H](C)[C@@H](O[C@@H]2O[C@H](C)C[C@H](N(C)C)[C@H]2O)[C@](C)(O)C[C@@H](C)CN(C)[C@H](C)[C@@H](O)[C@]1(C)O | ≤ 0.125 µg/mL | 1 µg/mL (≈ 0.871 µM) | 64 µg/mL (≈ 55.7 µM) | 0.5 µg/mL (≈ 0.435 µM) | ≤ 0.125 µg/mL | 0.25 µg/mL (≈ 0.218 µM) | ≤ 0.125 µg/mL | 2 µg/mL (≈ 1.74 µM) | ≤ 0.125 µg/mL | ≤ 0.125 µg/mL | 0.5 µg/mL (≈ 0.435 µM) | 0.25 µg/mL (≈ 0.218 µM) | 2 µg/mL (≈ 1.74 µM) | 1 µg/mL (≈ 0.871 µM) |
